The record followed here is ChEMBL document CHEMBL1143846, “Clinical pharmacodynamics of meropenem in patients with lower respiratory tract infections” (Antimicrob Agents Chemother, 2007).

≈ marks a conversion by molar mass, not a printed value.

In one data set the test system is Haemophilus influenzae. Description: Antimicrobial activity against Haemophilus influenzae. The format is functional.
The species named for data set [1] is Homo sapiens. Briefly: fCmin in patient with lower respiratory tract infection. Particulars: in vivo. The format is ADME, organism-based.
Data set [2] is filed under the species Homo sapiens. Briefly: ft>MIC in patient with lower respiratory tract infection. Particulars: in vivo. In kind it is ADME, organism-based.
Data set [3] in a line: Ratio of fCmax to MIC in patient with lower respiratory tract infection. In kind it is ADME. Particulars: human.
A short description of data set [4]: Ratio of fAUC to MIC in patient with lower respiratory tract infection. In kind it is ADME. Particulars: human.
For the next data set, the system named is Streptococcus pneumoniae. Description: Antimicrobial activity against Streptococcus pneumoniae. The format is functional.
Data set [5] in a line: Ratio of fCmin to MIC in patient with lower respiratory tract infection. The format is ADME. Particulars: human.
Another data set deals with Staphylococcus aureus. Description: Antimicrobial activity against methicillin-susceptible Staphylococcus aureus. In kind it is functional.
Data set [6] is filed under the species Homo sapiens. Description: fCmax in patient with lower respiratory tract infection. Particulars: in vivo. In kind it is ADME, organism-based.
The test system of a further data set is Pseudomonas aeruginosa. Briefly: Antimicrobial activity against Pseudomonas aeruginosa. In kind it is functional.
The species entered for data set [7] is Homo sapiens. Description: fAUC in patient with lower respiratory tract infection. The format is ADME, organism-based. Particulars: in vivo.
Another data set relates to Klebsiella pneumoniae. Briefly: Antimicrobial activity against Klebsiella pneumoniae. The format is functional.

`C[C@@H](O)[C@H]1C(=O)N2C(C(=O)O)=C(S[C@@H]3CN[C@H](C(=O)N(C)C)C3)[C@H](C)[C@H]12` [MEROPENEM]: the MIC against Haemophilus influenzae, against Streptococcus pneumoniae, in the data set on Staphylococcus aureus, in the data set with Pseudomonas aeruginosa and in the data set on Klebsiella pneumoniae was 0.06 µg/mL (≈ 0.156 µM) throughout. For the same compound, the fCmin in the data set listed under Homo sapiens [1] was determined as 0.91 µg/mL. Moreover, the “fT>MIC” value in the data set listed under Homo sapiens [2] is listed as 91%. Besides, the Ratio in [3] is listed as 1427.66; in data set [4], 6683.38; in data set [5], 34.24. For the same compound, the fCmax in the data set filed under Homo sapiens [6] was 32.27 µg/mL. In the data set listed under Homo sapiens [7], the fAUC was determined as 157.43 µg·h/mL.
